Like-named read-outs stand apart in the source and are kept apart here.
What was measured:
[1] = Cellular toxicity by [3H]-thymidine uptake; format: cell-based; details: human
Protocol: The cellular toxicity of the compounds were assessed on various cells using [^3H]-thymidine uptake. Various cells, including Molt-4, HT1080, DU-145, HepG-2 and HSF, were plated at a concentration of 1-2×10^3 cells per well (96 well plates). After a 24 hr incubation period, 10-fold serial diluted compounds (b 10^−4 M to 10^−10 M) were added to the culture medium and the cells were further incubated for 72 hrs. [^3H]-thymidine was added during the final 18 hr incubation period. After incubation with the [^3H]-thymidine, the cells were washed once with PBS, treated with trypsin if the cells were adherent, and then resuspended in water (hypotonic lysing of cells). The cellular extract was applied directly to a Tomtec Harvester 96. Using this instrument the extracted DNA is adsorbed onto filters, washed and the incorporated [^3H]-thymidine is then counted. The 50% cytotoxic concentration (CC50) was determined by comparing the radioactive counts per minute of the samples in the presence of the compounds against the control. The cellular toxicity of the compounds was also tested by WST-1 staining through assessing proliferation of MT-2, H9, Jurkat, U937, and CBMCs. The established cell lines were cultured in RPMI medium in 96-well plates at a density of 5×10^4 cells/well while CBMCs were plated at a concentration of 0.5×10^6/well. A 10-fold serial diluted (10^−4-10^−7 M) compound was added at day zero. At day 4, the cells were passaged by changing half medium containing appropriately diluted compound. The cell activities were assessed at day 7 using the WST-1 reagent (Boehringer Mannheim) following the protocol provided by the supplier.
(§1) Cellular toxicity was assessed by [^3H]thymidine uptake (de Muys et al. 1999) and WST-1 staining. In the [^3H]thymidine uptake experiments, Molt-4, HT1080, DU-145, HepG2 and HSF, were plated at a concentration of 1-2×10^3 cells per well (96 well plates). PHA-stimulated PBMCs were cultured at a concentration of 4×10^4 cells per well. Following a 24 hr pre-incubation period, test compounds (10^−4 M to 10^−10 M) were added and the cells were incubated for an additional 72 hrs. [^3H]thymidine was added during the final 18 hr incubation period. The cells were then washed once with PBS, treated with trypsin if the cells were adherent, and resuspended in water (hypotonic lysing of cells). The cellular extract was applied directly to a Tomtec Harvester 96. The 50% cytotoxic concentration (CC50) was determined by comparing the radioactive counts per minute obtained from drug-tested samples to those obtained from the control (untreated) cells.

[2] = test system: Zidovudine^R/Lamivudine^R (2) clinical HIV-1 isolates; assay: Clinical HIV-1 isolates (RT activity); format: cell-based; details: Human immunodeficiency virus 1, Zidovudine^R/Lamivudine^R (2 isolates)
Protocol: (§2) ANTIVIRAL ASSAYS. The anti-HIV-1 activity of the compound A (−) were assessed by employing HIV-1IIIB in a variety of cell types as previously described (Gu et al., 1992, 1994, 1999; Rando et al., 1995; Salomon et al., 1994). Briefly, cells were incubated with virus at a multiplicity of infection (MOI) of 0.005 for T cell assays and an MOI of 0.5 for monocytic cell assays for 3 hrs. Unbound virus was then removed by washing the cells, followed by seeding the cells into a 96-well plate. The infected cells were cultured in the presence of a serial concentrations of the test compound for 5-7 days. The anti-HIV-1 efficacy was determined by testing for HIV-1 RT activity or p24 level in the cell culture supernatants. All assays were performed in duplicate. Zidovudine and/or lamivudine were used as controls in each experiment.
(§3) Clinical strains were isolated from PBMCs of HIV-1 infected individuals through co-culture with PBMCs from normal dornors. To determine the RT genotype of the HIV-1 clinical isolates, the proviral DNA was extracted from infected CD4^+ T-cells or PBMCs and the complete RT coding regions were amplified by PCR as previously reported (Gu et al 1992). The PCR product was purified and then directly sequenced using primer RTS (5′-CCAAAAGTTAAACAATGGC-3′) which is located at the 5′ portion of the RT coding region (nucleotide 2603-2621 of HXB2-D coordinates). Antiviral activity was evaluated as described in example 10.

[3] = test system: Zidovudine^S/Lamivudine^S (7) clinical HIV-1 isolates; assay: Clinical HIV-1 isolates (RT activity); format: cell-based; details: Human immunodeficiency virus 1, Zidovudine^S/Lamivudine^S (7 isolates)
Protocol: as §2, §3

[4] = test system: HXB2-D (wt); assay: Recombinant HIV-1 variants (RT activity); format: cell-based; details: Human immunodeficiency virus 1, HXB2
Protocol: as §2
Recombinant HIV-1 variants were prepared by introducing the designed mutations into HXB2-D by site-directed mutagenesis as described (Gu et al. 1992, 1994). The virus stocks were prepared by transfecting MT-4 cells with infectious viral DNA constructs. Antiviral activity of the compound A (−) was evaluated as described in example 10.

[5] = Cellular toxicity by [3H]-thymidine uptake; format: cell-based, human; details: human, Table 14, PHA-stimulated PBMCs, read-out: CC50 (μM) [^3H]TTP incorporation in: PBMC
Protocol: as §1

[6] = test system: CCR19 (Lamivudine^R); assay: Drug-resistant clinical isolates in PBMCs (p24); format: cell-based, HIV-1; details: Human immunodeficiency virus 1, PBMC
Protocol: as §2, §3

[7] = test system: 105/F (zidovudine^R); assay: Drug-resistant clinical isolates in PBMCs (p24); format: cell-based, HIV-1; details: Human immunodeficiency virus 1, PBMC
Protocol: as §2, §3

[8] = test system: 105/A (wt); assay: Drug-resistant clinical isolates in PBMCs (p24); format: cell-based, HIV-1; details: Human immunodeficiency virus 1, PBMC
Protocol: as §2, §3

[9] = test system: CCR15 (Lamivudine^R); assay: Drug-resistant clinical isolates in PBMCs (p24); format: cell-based, HIV-1; details: Human immunodeficiency virus 1, PBMC
Protocol: as §2, §3

[10] = test system: CCR18 (Lamivudine^R); assay: Drug-resistant clinical isolates in PBMCs (p24); format: cell-based, HIV-1; details: Human immunodeficiency virus 1, PBMC
Protocol: as §2, §3

[11] = test system: HIV-1IIIB; assay: Anti-HIV-1 antiviral assay with HIV-1IIIB in various cell types (RT activity); format: cell-based
Protocol: as §2
Activity of the compound A (−) against HIV-1 in various cells. Anti-HIV-1 activity of the compound A (−) were tested in different types of cells, including human peripheral […] cells (PBMCs), T-cell (MT-2 and MT-4) and monocytic cell (U937) lines. The compound A (−) had submicromolar EC50s against HIV-1IIIB in different types of cells tested (Table 2).

[12] = read-out: EC50 (μM), mean EC50 values
[13] = read-out: EC50 (μM), ranges of EC50s of the isolates in the same group
[14] = Human immunodeficiency virus 1, HIV-1IIIB, MT-2 (4 determinations), RT activity, read-out: EC50
[15] = Human immunodeficiency virus 1, HIV-1IIIB, MT-4 (2 determinations), RT activity, read-out: EC50
[16] = Human immunodeficiency virus 1, MT2, HIV-1IIIB, MT-2 cells, determined by RT activity, read-out: EC50 (μM) ± S.D. in MT-2 cells
[17] = Human immunodeficiency virus 1, PBMC, HIV-1IIIB, PBMCs (3 determinations), RT activity, read-out: EC50
[18] = Human immunodeficiency virus 1, U-937, HIV-1IIIB, U937 (1 determination), RT activity, read-out: EC50
[19] = Table 4, read-out: CC50 (μM) [^3H-]TTP incorporation in: HSF
[20] = Table 4, read-out: CC50 (μM) [^3H-]TTP incorporation in: Molt-4

SMILES	EC50 [2] [µM]	EC50 [3, 12] [µM]	EC50 [3, 13] [µM]	EC50 [4] [µM]	CC50 at 72 h [5] [µM]	IC50 [6] [µM]	IC50 [7] [µM]	IC50 [8] [µM]	IC50 [9] [µM]	IC50 [10] [µM]	EC50 [11, 14] [µM]	EC50 [11, 15] [µM]	EC50 [11, 16] [µM]	EC50 [11, 17] [µM]	EC50 [11, 18] [µM]	CC50 at 72 h [1, 19] [µM]	CC50 at 72 h [1, 20] [µM]	further results
Nc1nc(NC2CC2)c2ncn([C@H]3CO[C@@H](CO)O3)c2n1 [Compound A (-), (−)-(2R,4R)-2-hydroxymethyl-4-(2′-amino-6′-cyclopropylamino-purine-9′-yl)-1,3-dioxolane]	0.33	0.15	0.032 to 0.31	0.53	286	1.6	0.84	0.6	0.3	1.3	0.082	0.14	0.083	0.22	0.82			CC50 at 72 h ([1]; DU-145 cells, Table 14, read-out: CC50 (μM) [^3H]TTP incorporation in: U145): > 500 µM; CC50 at 72 h ([1]; HSF cells, Table 14, read-out: CC50 (μM) [^3H]TTP incorporation in: HSF): 414 µM; CC50 at 72 h ([1]; HT1080 cells, Table 14, read-out: CC50 (μM) [^3H]TTP incorporation in: HT800): > 500 µM; CC50 at 72 h ([1]; HepG2 cells, Table 14, read-out: CC50 (μM) [^3H]TTP incorporation in: HepG2): > 500 µM; CC50 at 72 h ([1]; Molt-4 cells, Table 14, read-out: CC50 (μM) [^3H]TTP incorporation in: Molt4): > 500 µM
Nc1ccn([C@@H]2CS[C@H](CO)O2)c(=O)n1 [Lamivudine, lamivudine]	4.1	0.23	0.028 to 0.69	0.35	> 500	95	0.17	0.065	95	300	0.061	0.17	0.061 ± 0.028	0.035	0.014	400	> 100	CC50 at 72 h ([1]; Table 14, read-out: CC50 (μM) [^3H]TTP incorporation in: HT800): > 500 µM; CC50 at 72 h ([1]; Table 14, read-out: CC50 (μM) [^3H]TTP incorporation in: HepG2): > 100 µM; CC50 at 72 h ([1]; Table 14, read-out: CC50 (μM) [^3H]TTP incorporation in: U145): > 500 µM
Cc1cn([C@H]2C[C@H](N=[N+]=[N-])[C@@H](CO)O2)c(=O)[nH]c1=O [Zidovudine, zidovudine]	1.15	0.021	0.0034 to 0.051	0.023	9	0.003	0.23	0.0043	0.003	0.0042	0.0051	0.015	0.0051 ± 0.0025	0.0027	0.027	> 10	3	CC50 at 72 h ([1]; Table 4, read-out: CC50 (μM) [^3H-]TTP incorporation in: HT1080): 5 µM; CC50 at 72 h ([1]; Table 4, read-out: CC50 (μM) [^3H-]TTP incorporation in: HepG2): 3 µM; CC50 at 72 h ([1]; Table 4, read-out: CC50 (μM) [^3H-]TTP incorporation in: U-145): > 10 µM
